Data taken from patent US10093675B2, “6,8-disubstituted-9-(heterocyclyl)purines, compositions containing these derivatives and their use in cosmetic and medicinal applications” (USTAV EXPERIMENTALNI BOTANIKY AV CR, V.V.I., priority 2014, dated 2018).

Columns and labels:
[1] = test system: excised wheat leaf tips (Triticum aestivum cv. Hereward); assay: Senescence inhibition on winter wheat leaf segments (retention of chlorophyll); type: in vivo; conditions: 10^−4 mol/L; 96 hours in the dark; activity of kinetin set at 100%
Description: Seeds of winter wheat, Triticum aestivum cv. Hereward, were washed under running water for 24 hours and then sown on vermiculite soaked with Knop's solution. They were placed in the grown chamber at 25° C. with a 16/8 hours light period at […]. After 7 days, the first leaf was fully developed and the second leaf had started to grow. A tip section of the first leaf, approximately 35 mm long, was removed from 5 seedlings and trimmed slightly to a combined weight of 100 mg. The basal ends of the five leaf tips were placed in the wells of a microtiter polystyrene plate containing […] of a cytokinin solution each. The entire plate was inserted into a plastic box lined with paper tissues soaked in distilled water to prevent leaf sections from drying out. After 96 hours incubation in the dark at 25° C., the leaves were removed and chlorophyll extracted by heating at 80 C for 10 min in 5 ml of 80% ethanol (v/v). The sample volume was then restored to 5 ml by the addition of 80% ethanol (v/v). The absorbance of the extract was recorded at 665 nm. In addition, chlorophyll extracts from fresh leaves and leaf tips incubated in deionized water were measured. From the obtained data, the concentration with highest activity was selected for each compound tested. Relative activity of the compound at this concentration was calculated (see Table 6 below). The activity obtained for 10^−4 M kinetin (Kin) was set as 100%. The values shown are means of five replicates and the whole experiment was repeated twice.
The compounds to be tested were dissolved in dimethylsulfoxide (DMSO) and the solution brought up to 10^−3 M with distilled water. […] As summarized in Table 6 below, the presence of C-8 substitutent was beneficial and led to increase of antisenescent properties.

[2] = test system: Salmonella typhimurium histidien auxotrophs TA98 and TA100; assay: Ames test; type: cell-based; conditions: 2.5 to 5000 μg/plate; presence and absence of Aroclor-induced rat liver S9
Description: A number of tests related to the safety of have been carried out using conventionally accepted protocols and procedures. The results of these studies are summarized herein. Tests were carried out using DMSO as solvent and dose levels of compound 21, 24, 26, 27, 39, 41, 45, 48, 50, 52, 53, 54, 55, 56, 63, 64, 66, 67, 68, 69, 70, 71, 72, 74, 76, 124, 125, 126, 127, 128, 129, 130, 145, 146, 147, 149, 150, 151, 208, 216, 218 a 243 at 2.5, 5.0, 15, 50, 500, 1500, and 5000 μg/plate based upon standard protocol and procedures (Ames et al., Mutation Research, 31, 347-364 (1975); Maron et al., Mutation Research, 113, 173-215 (1983)).

[3] = test system: human diploid fibroblasts (HDF cells; HDF25, HDF45, HDF80); assay: Inhibition of human cell aging: senescent cells by beta-galactosidase staining; type: cell-based; conditions: for SENESCENT CELLS (%) HDF25: human diploid fibroblasts passage 25, beta-galactosidase staining; for SENESCENT CELLS (%) HDF45: human diploid fibroblasts passage 45, beta-galactosidase staining; for SENESCENT CELLS (%) HDF80: human diploid fibroblasts passage 80, beta-galactosidase staining
Description: In this example, human diploid fibroblasts (HDF cells of various passage levels: passage 25—designated HDF25; passage 45—designated HDF45; passage 80—designated HDF80) were stained for beta-galactosidase activity. The medium used for the cell cultivation was removed the cells were washed twice in […], and fixed in 2-3 ml of fixing solution comprised of a 2% formaldehyde and 0.2% glutaraldehyde in PBS. The cells were incubated at room temperature for 5 minutes, and then washed twice with PBS. The cells were subsequently incubated at 37° C. […] In this experiment, senescent cells, but no other cells were stained blue due to the action of beta-galactosidase on the substrate.

[4] = test system: cytokinin-dependent tobacco callus Nicotiana tabacum L. cv. Wisconsin 38; assay: Plant cell division: growth of cytokinin-dependent tobacco callus; type: cell-based; conditions: for Activity (%); (s.d.): relative activity at concentration with highest activity, 10^−6 M kinetin set at 100%; for Concentration with highest activity (mol/l): tobacco callus fresh weight increase after four weeks, tested 10^−8 M to 10^−4 M
Description: Cytokinin-dependent tobacco callus Nicotiana tabacum L. cv. Wisconsin 38 was maintained at 25° C. in darkness on modified MS medium, containing 4 μmol/l nicotinic acid, 2.4 μmol/l pyridoxine hydrochloride, 1.2 μmol/l thiamine, 26.6 μmol/l glycine, 1.37 μmol/l glutamine, 1.8 μmol/l myo-inositol, 30 g/l of sucrose, 8 g/l of agar, 5.37 μmol/l NAA and 0.5 μmol/l BAP. Subcultivation was carried out every three weeks. Fourteen days before the bioassay, the callus tissue was transferred to the media without BAP. Biological activity was determined from the increase in fresh callus weight after four weeks of cultivation. Five replicates were prepared for each cytokinin concentration and the entire test was repeated twice. From the obtained data, the concentration with highest activity was selected for each compound tested. Relative activity at this concentration was calculated (see Table 17 below). The activity obtained for 10^−6 M kinetin (Kin) was set as 100%.
The cytokinins to be tested were dissolved in dimethylsulfoxide (DMSO) and the solution brought up to 10^−3M with distilled water.

Oc1ccc(CNc2ncnc3c2nc(I)n3C2CCCCO2)cc1O (stereo not drawn) [Compound 54]
Activity (%) (s.d.), retention of chlorophyll [1]: 138 (±7) %
mutagenic response [2]: no positive mutagenic responses
SENESCENT CELLS (%) HDF25 [3]: 3%
SENESCENT CELLS (%) HDF45 [3]: 5%
SENESCENT CELLS (%) HDF80 [3]: 20%

COc1ccc(CNc2ncnc3c2nc(Br)n3C2CCCCO2)cc1OC (stereo not drawn) [Compound 41]
Activity (%) (s.d.), retention of chlorophyll [1]: 133 (±7) %
mutagenic response [2]: no positive mutagenic responses
SENESCENT CELLS (%) HDF25 [3]: 2%
SENESCENT CELLS (%) HDF45 [3]: 6%
SENESCENT CELLS (%) HDF80 [3]: 21%

Fc1ccc(CNc2ncnc3c2nc(Cl)n3C2CCCO2)cc1F (stereo not drawn) [Compound 67]
Activity (%) (s.d.), retention of chlorophyll [1]: 128 (±6) %
mutagenic response [2]: no positive mutagenic responses
SENESCENT CELLS (%) HDF25 [3]: 4%
SENESCENT CELLS (%) HDF45 [3]: 6%
SENESCENT CELLS (%) HDF80 [3]: 18%

Ic1nc2c(NCc3ccco3)ncnc2n1C1CCCCO1 (stereo not drawn) [Compound 45, 8-Iodo-6-furfurylamino-9-(tetrahydropyran-2-yl)-9H-purine]
Activity (%) (s.d.), retention of chlorophyll [1]: 112 (±4) %
mutagenic response [2]: no positive mutagenic responses
SENESCENT CELLS (%) HDF25 [3]: 3%
SENESCENT CELLS (%) HDF45 [3]: 5%
SENESCENT CELLS (%) HDF80 [3]: 20%

C/C(=C\CNc1ncnc2c1nc(I)n2C1CCCCO1)CO (stereo not drawn) [Compound 48]
Activity (%) (s.d.), retention of chlorophyll [1]: 120 (±4) %
mutagenic response [2]: no positive mutagenic responses
SENESCENT CELLS (%) HDF25 [3]: 2%
SENESCENT CELLS (%) HDF45 [3]: 4%
SENESCENT CELLS (%) HDF80 [3]: 21%

Fc1ccc(CNc2ncnc3c2nc(I)n3C2CCCCO2)cc1F (stereo not drawn) [Compound 55]
Activity (%) (s.d.), retention of chlorophyll [1]: 133 (±5) %
mutagenic response [2]: no positive mutagenic responses
SENESCENT CELLS (%) HDF25 [3]: 3%
SENESCENT CELLS (%) HDF45 [3]: 4%
SENESCENT CELLS (%) HDF80 [3]: 18%

c1coc(CNc2ncnc3[nH]cnc23)c1 [kinetin, reference compound]
Activity (%) (s.d.), retention of chlorophyll [1]: 100%
SENESCENT CELLS (%) HDF25 [3]: 3%
SENESCENT CELLS (%) HDF45 [3]: 5%
SENESCENT CELLS (%) HDF80 [3]: 38%

COc1cccc(CNc2ncnc3c2nc(I)n3C2CCCCO2)c1 (stereo not drawn) [Compound 52]
Activity (%) (s.d.), retention of chlorophyll [1]: 120 (±3) %
mutagenic response [2]: no positive mutagenic responses
SENESCENT CELLS (%) HDF25 [3]: 2%
SENESCENT CELLS (%) HDF45 [3]: 6%
SENESCENT CELLS (%) HDF80 [3]: 21%

Fc1ccc(CNc2ncnc3c2nc(Cl)n3C2CCCCO2)cc1F (stereo not drawn) [Compound 11]
Activity (%) (s.d.), retention of chlorophyll [1]: 127 (±5) %

OCCNc1nc2c(NCc3ccco3)ncnc2n1C1CCCCO1 (stereo not drawn) [Compound 243, 6-furfurylamino-8-(2-hydroxyethylamino)-9-(tetrahydropyran-2-yl)-9H-purine]
mutagenic response [2]: no positive mutagenic responses

Oc1cccc(CNc2ncnc3c2nc(I)n3C2CCCCO2)c1 (stereo not drawn) [Compound 53]
Activity (%) (s.d.), retention of chlorophyll [1]: 125 (±6) %
mutagenic response [2]: no positive mutagenic responses
SENESCENT CELLS (%) HDF25 [3]: 2%
SENESCENT CELLS (%) HDF45 [3]: 5%
SENESCENT CELLS (%) HDF80 [3]: 21%

CC(C)=CCNc1ncnc2c1nc(Br)n2C1CCCO1 (stereo not drawn) [Compound 75]
Activity (%); (s.d.) [4]: 119 (±4) %
Concentration with highest activity (mol/l) [4]: 10^−6-10^−4 mol/l

Clc1nc2c(NCc3ccco3)ncnc2n1C1CCCO1 (stereo not drawn) [Compound 63]
Activity (%) (s.d.), retention of chlorophyll [1]: 110 (±2) %
mutagenic response [2]: no positive mutagenic responses
SENESCENT CELLS (%) HDF25 [3]: 2%
SENESCENT CELLS (%) HDF45 [3]: 4%
SENESCENT CELLS (%) HDF80 [3]: 19%

Oc1cccc(CNc2ncnc3c2nc(I)n3C2CCCO2)c1 (stereo not drawn) [Compound 76]
Activity (%) (s.d.), retention of chlorophyll [1]: 112 (±3) %
mutagenic response [2]: no positive mutagenic responses
Activity (%); (s.d.) [4]: 114 (±3) %
Concentration with highest activity (mol/l) [4]: 10^−6-10^−4 mol/l
SENESCENT CELLS (%) HDF25 [3]: 3%
SENESCENT CELLS (%) HDF45 [3]: 4%
SENESCENT CELLS (%) HDF80 [3]: 15%

COc1ccc(CNc2ncnc3c2nc(Cl)n3C2CCCCO2)cc1OC (stereo not drawn) [Compound 12]
Activity (%) (s.d.), retention of chlorophyll [1]: 140 (±7) %

Fc1cccc(CNc2ncnc3c2nc(I)n3C2CCCCO2)c1 (stereo not drawn) [Compound 50]
Activity (%) (s.d.), retention of chlorophyll [1]: 121 (±4) %
mutagenic response [2]: no positive mutagenic responses
SENESCENT CELLS (%) HDF25 [3]: 3%
SENESCENT CELLS (%) HDF45 [3]: 4%
SENESCENT CELLS (%) HDF80 [3]: 19%

COc1ccc(CNc2ncnc3c2nc(I)n3C2CCCCO2)cc1OC (stereo not drawn) [Compound 56]
Activity (%) (s.d.), retention of chlorophyll [1]: 141 (±8) %
mutagenic response [2]: no positive mutagenic responses
SENESCENT CELLS (%) HDF25 [3]: 3%
SENESCENT CELLS (%) HDF45 [3]: 5%
SENESCENT CELLS (%) HDF80 [3]: 21%

C/C(=C/CNc1ncnc2c1nc(Br)n2C1CCCO1)CO (stereo not drawn) [Compound 74]
Activity (%) (s.d.), retention of chlorophyll [1]: 127 (±5) %
mutagenic response [2]: no positive mutagenic responses
Activity (%); (s.d.) [4]: 122 (±4) %
Concentration with highest activity (mol/l) [4]: 10^−6-10^−4 mol/l
SENESCENT CELLS (%) HDF25 [3]: 3%
SENESCENT CELLS (%) HDF45 [3]: 5%
SENESCENT CELLS (%) HDF80 [3]: 21%

Fc1cccc(CNc2ncnc3c2nc(Cl)n3C2CCCO2)c1 (stereo not drawn) [Compound 71]
Activity (%) (s.d.), retention of chlorophyll [1]: 119 (±3) %
mutagenic response [2]: no positive mutagenic responses
Activity (%); (s.d.) [4]: 116 (±2) %
Concentration with highest activity (mol/l) [4]: 10^−6-10^−4 mol/l
SENESCENT CELLS (%) HDF25 [3]: 3%
SENESCENT CELLS (%) HDF45 [3]: 6%
SENESCENT CELLS (%) HDF80 [3]: 19%

Brc1nc2c(NCc3ccco3)ncnc2n1C1CCCO1 (stereo not drawn) [Compound 72]
Activity (%) (s.d.), retention of chlorophyll [1]: 106 (±2) %
mutagenic response [2]: no positive mutagenic responses
SENESCENT CELLS (%) HDF25 [3]: 3%
SENESCENT CELLS (%) HDF45 [3]: 4%
SENESCENT CELLS (%) HDF80 [3]: 17%

Oc1ccc(CNc2ncnc3c2nc(Cl)n3C2CCCO2)cc1O (stereo not drawn) [Compound 66]
Activity (%) (s.d.), retention of chlorophyll [1]: 132 (±5) %
mutagenic response [2]: no positive mutagenic responses
SENESCENT CELLS (%) HDF25 [3]: 2%
SENESCENT CELLS (%) HDF45 [3]: 4%
SENESCENT CELLS (%) HDF80 [3]: 16%

Oc1cccc(CNc2ncnc3c2nc(Cl)n3C2CCCO2)c1 (stereo not drawn) [Compound 70]
Activity (%) (s.d.), retention of chlorophyll [1]: 126 (±1) %
mutagenic response [2]: no positive mutagenic responses
Activity (%); (s.d.) [4]: 110 (±1) %
Concentration with highest activity (mol/l) [4]: 10^−6-10^−4 mol/l
SENESCENT CELLS (%) HDF25 [3]: 2%
SENESCENT CELLS (%) HDF45 [3]: 5%
SENESCENT CELLS (%) HDF80 [3]: 18%
